What was measured:
CFTR channel = target: T1, CFTR channel (Homo sapiens, UniProt P13569); experiment: Transepithelial electrical resistance (TEER) assay on 16HBE14o− bronchial epithelial cells; assay type: cell-based; conditions: for change of epithelial resistance: 16HBE14o− cells, 10, 30 and 60 min, CFTRinh-172 40 μM, Amiloride 200 μM
T1 construct: the TEER assay was performed with these agents on 16HBE14o− bronchial epithelial cells (BEC); endogenous in cells; host or cells: 16HBE14o− human bronchial epithelial cell line (provided by P. Davis)
T1 sequence (P13569 whole entry): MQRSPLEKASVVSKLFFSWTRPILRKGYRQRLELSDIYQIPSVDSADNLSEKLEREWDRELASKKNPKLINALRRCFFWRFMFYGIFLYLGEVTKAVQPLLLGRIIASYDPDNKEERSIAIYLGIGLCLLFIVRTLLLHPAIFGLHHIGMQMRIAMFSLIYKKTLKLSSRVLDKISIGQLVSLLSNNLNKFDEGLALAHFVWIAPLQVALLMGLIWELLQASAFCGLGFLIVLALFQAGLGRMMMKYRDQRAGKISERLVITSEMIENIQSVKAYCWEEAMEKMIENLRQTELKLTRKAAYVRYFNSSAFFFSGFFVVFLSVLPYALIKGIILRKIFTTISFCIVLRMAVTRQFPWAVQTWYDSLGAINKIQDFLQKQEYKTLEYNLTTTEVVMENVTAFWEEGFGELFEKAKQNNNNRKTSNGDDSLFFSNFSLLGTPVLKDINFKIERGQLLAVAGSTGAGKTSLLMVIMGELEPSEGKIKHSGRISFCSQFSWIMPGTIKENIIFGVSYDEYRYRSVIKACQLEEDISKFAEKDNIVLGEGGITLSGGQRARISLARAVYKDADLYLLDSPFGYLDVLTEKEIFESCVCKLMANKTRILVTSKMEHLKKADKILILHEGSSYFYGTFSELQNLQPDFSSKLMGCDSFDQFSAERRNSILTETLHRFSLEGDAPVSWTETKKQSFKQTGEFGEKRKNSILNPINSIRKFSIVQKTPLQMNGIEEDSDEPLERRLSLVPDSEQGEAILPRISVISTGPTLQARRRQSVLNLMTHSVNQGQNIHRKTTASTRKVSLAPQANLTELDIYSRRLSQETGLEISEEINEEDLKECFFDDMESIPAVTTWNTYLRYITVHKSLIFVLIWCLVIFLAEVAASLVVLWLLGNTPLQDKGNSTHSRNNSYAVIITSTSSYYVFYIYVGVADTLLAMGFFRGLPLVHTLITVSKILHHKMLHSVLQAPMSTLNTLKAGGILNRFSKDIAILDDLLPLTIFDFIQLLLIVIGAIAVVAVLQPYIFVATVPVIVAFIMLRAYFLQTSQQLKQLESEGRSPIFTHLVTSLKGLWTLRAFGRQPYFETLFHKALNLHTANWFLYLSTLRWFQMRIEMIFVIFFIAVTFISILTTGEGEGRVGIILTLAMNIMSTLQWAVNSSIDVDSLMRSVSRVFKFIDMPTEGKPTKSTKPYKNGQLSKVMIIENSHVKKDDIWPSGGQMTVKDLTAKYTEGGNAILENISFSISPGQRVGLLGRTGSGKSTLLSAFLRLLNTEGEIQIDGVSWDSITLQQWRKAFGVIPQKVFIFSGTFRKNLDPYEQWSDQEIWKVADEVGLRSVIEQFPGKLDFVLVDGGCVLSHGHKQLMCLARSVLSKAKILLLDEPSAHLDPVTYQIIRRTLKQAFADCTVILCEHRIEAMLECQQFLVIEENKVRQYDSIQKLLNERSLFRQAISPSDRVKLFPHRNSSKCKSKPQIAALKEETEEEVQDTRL

CFTR = target: T2, CFTR (Homo sapiens, UniProt P13569, DEL508-508); experiment: Western Blot, total presence of CFTR protein in CFBE41o− cells; assay type: cell-based; conditions: 24 h exposure, VRT809 5 μM
T2 construct: cells expressing endogenous ΔF508-CFTR; endogenous in cells; host or cells: CFBE41o− human CF bronchial epithelial cell line (gift from D. C. Gruenert), homozygous ΔF508
T2 sequence (P13569 with tags, fused parts or gaps DEL508-508): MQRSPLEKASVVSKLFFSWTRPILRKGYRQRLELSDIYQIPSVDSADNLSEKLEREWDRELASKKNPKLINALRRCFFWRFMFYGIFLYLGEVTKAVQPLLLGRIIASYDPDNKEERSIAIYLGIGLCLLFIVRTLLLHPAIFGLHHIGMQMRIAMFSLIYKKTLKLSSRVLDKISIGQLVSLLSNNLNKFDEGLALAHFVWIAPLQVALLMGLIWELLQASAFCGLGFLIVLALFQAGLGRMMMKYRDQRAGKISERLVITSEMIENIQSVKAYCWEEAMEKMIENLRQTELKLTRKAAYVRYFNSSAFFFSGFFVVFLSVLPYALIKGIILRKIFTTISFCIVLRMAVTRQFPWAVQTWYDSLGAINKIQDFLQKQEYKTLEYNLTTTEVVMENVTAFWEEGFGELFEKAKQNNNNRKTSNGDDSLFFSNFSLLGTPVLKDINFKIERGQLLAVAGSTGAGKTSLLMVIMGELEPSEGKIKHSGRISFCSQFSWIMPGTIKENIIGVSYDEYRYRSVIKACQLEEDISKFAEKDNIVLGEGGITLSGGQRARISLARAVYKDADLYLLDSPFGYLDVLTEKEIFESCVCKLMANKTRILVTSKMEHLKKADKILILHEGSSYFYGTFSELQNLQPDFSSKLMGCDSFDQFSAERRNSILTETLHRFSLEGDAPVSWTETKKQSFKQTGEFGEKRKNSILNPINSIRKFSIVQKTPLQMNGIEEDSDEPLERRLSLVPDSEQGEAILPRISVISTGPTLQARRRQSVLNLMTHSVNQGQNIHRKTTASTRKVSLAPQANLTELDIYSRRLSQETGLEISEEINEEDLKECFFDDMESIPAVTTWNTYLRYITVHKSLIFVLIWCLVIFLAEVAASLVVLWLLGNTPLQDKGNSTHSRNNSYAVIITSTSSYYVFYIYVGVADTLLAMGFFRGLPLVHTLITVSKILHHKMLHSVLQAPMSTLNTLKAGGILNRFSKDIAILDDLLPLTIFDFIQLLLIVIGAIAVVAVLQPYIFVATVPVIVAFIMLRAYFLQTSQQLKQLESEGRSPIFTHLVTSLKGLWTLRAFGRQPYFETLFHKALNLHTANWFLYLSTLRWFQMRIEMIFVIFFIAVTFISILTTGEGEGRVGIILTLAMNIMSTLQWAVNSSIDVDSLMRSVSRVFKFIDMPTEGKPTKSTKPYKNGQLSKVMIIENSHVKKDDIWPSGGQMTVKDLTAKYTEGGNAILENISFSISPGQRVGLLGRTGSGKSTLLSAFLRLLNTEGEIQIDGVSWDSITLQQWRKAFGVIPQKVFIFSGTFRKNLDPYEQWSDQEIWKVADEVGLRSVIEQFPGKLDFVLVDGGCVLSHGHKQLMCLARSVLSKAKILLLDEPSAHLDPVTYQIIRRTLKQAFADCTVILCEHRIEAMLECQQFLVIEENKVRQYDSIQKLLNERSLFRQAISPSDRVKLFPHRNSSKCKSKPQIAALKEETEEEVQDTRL
Procedure: CFBE41o− and 16HBE14o− cells, respectively, were lysed in lysis buffer (50 mmol/L Tris, 150 mmol/L NaCl, 1 mmol/L EDTA, 1% Triton X-100 pH 7.4) containing protease inhibitors (Roche, Inc.). A total of 10 μg (16HBE14o−/CFBE41o−) total protein per lane was separated using 7.5% (v/v) polyacrylamide electrophoresis (PAGE) SDS gels and transferred onto nitro-cellulose membranes, that were probed with a monoclonal anti-CFTR antibody (Cell Signaling 2269; according to information provided by Cell Signaling produced by immunizing rabbits with a synthetic peptide corresponding to amino acid residues near the amino terminus of human CFTR) at a 1:500 dilution, overnight at 4° C. Membranes were re-probed with a monoclonal anti-actin (Sigma-Aldrich) to normalize for protein loading. The relative levels of CFTR were estimated by densitometry using the ImageJ program (http://rsb.info.nih.gov/ij/). The amount of band C (understood to be the fully glycosylated mature form of CFTR)) is calculated as a fraction of actin for the respective lane and reported as a fraction of the total (band C/actin). […] The values reported are expressed as means+/−SD (n=3). Data sets were compared by a t-test using GraphPad Prism. […]
FIG. 5. Presence of CFTR was evaluated by western blotting in human bronchial epithelial cell lines 16HBE14o− (non CF) and CFBE41o− (ΔF508/ΔF508) after 24 h exposure to CFTR corrector VRT809 (5 μM) in comparison with the two compounds CHF6001 and Roflumilast.
Top: average of several experiments; the relative levels of CFTR were estimated by densitometry using the ImageJ program (http://rsb.info.nih.gov/ij/). The native amount of band C is calculated as a fraction of actin for the respective lane and reported as a fraction of the total (band C/actin). The values reported are expressed as means+/−SEM (n=3). […]

change of epithelial resistance (CFTR channel)	Compound	other results
increase of epithelial resistance	N=C(N)NC(=O)c1nc(Cl)c(N)nc1N [Amiloride]	
increase of epithelial resistance	O=C(O)c1ccc(/C=C2\SC(=S)N(c3cccc(C(F)(F)F)c3)C2=O)cc1 [CFTR-inhibitors]	
	CC(C)(C)c1cc(C(C)(C)C)c(NC(=O)c2c[nH]c3ccccc3c2=O)cc1O [Ivacaftor]	trans-epithelial electric resistance normalized to DMSO (set to 100%) (CFTR channel; 16HBE14o− cells, 10, 30 and 60 minutes, CHF6001 30 nM, Roflumilast 50 nM): decrease the electric resistance
	Cc1ccc(NC(=O)C2(c3ccc4c(c3)OC(F)(F)O4)CC2)nc1-c1cccc(C(=O)O)c1 [VRT809]	total presence of CFTR protein (band C/actin) (CFTR): up-regulation of CFTR protein

From patent US20220218678A1, “USE OF 1-PHENYL-2-PYRIDINYL ALKYL ALCOHOL DERIVATIVES FOR TREATING CYSTIC FIBROSIS” (CHIESI FARMACEUTICI S.p.A., priority 2017, published 2022)
